Experimental data as given in ChEMBL document CHEMBL3045868, “Synthesis and antibacterial activities of para-alkoxy phenyl--ketoaldehyde derivatives” (Med Chem Res, 2013).
Converted amounts (≈) assume the structure as drawn.

Legend:
[1] = system: Helicobacter pylori; experiment: Antibacterial activity against Helicobacter pylori 05-14 assessed as growth inhibition after 16 to 18 hr NCCLS agar dilution method; type: functional
[2] = system: Staphylococcus aureus; experiment: Antibacterial activity against Staphylococcus aureus clinical isolate 20 assessed as growth inhibition at pH 5 after 16 to 18 hr by NCCLS agar dilution method; type: functional
[3] = system: Staphylococcus aureus; experiment: Antibacterial activity against Staphylococcus aureus clinical isolate 21 assessed as growth inhibition at pH 7 after 16 to 18 hr by NCCLS agar dilution method; type: functional
[4] = system: Helicobacter pylori; experiment: Antibacterial activity against Helicobacter pylori 06-1 assessed as growth inhibition after 16 to 18 hr NCCLS agar dilution method; type: functional
[5] = system: Staphylococcus aureus; experiment: Antibacterial activity against Staphylococcus aureus clinical isolate 19 assessed as growth inhibition at pH 5 after 16 to 18 hr by NCCLS agar dilution method; type: functional
[6] = system: Staphylococcus aureus; experiment: Antibacterial activity against methicillin-resistant Staphylococcus aureus isolate 4 assessed as growth inhibition after 16 to 18 hr by NCCLS agar dilution method; type: functional
[7] = system: Staphylococcus aureus; experiment: Antibacterial activity against Staphylococcus aureus clinical isolate 10 assessed as growth inhibition at pH 7 after 16 to 18 hr by NCCLS agar dilution method; type: functional
[8] = system: Staphylococcus aureus; experiment: Antibacterial activity against Staphylococcus aureus clinical isolate 12 assessed as growth inhibition at pH 9 after 16 to 18 hr by NCCLS agar dilution method; type: functional
[9] = system: Staphylococcus aureus; experiment: Antibacterial activity against Staphylococcus aureus clinical isolate 1 assessed as growth inhibition after 16 to 18 hr by NCCLS agar dilution method; type: functional
[10] = system: Staphylococcus aureus; experiment: Antibacterial activity against Staphylococcus aureus clinical isolate 16 assessed as growth inhibition at pH 7 after 16 to 18 hr by NCCLS agar dilution method; type: functional
[11] = system: Staphylococcus aureus; experiment: Antibacterial activity against Staphylococcus aureus clinical isolate 11 assessed as growth inhibition at pH 7 after 16 to 18 hr by NCCLS agar dilution method; type: functional
[12] = system: Staphylococcus aureus; experiment: Antibacterial activity against Staphylococcus aureus clinical isolate 6 assessed as growth inhibition at pH 9 after 16 to 18 hr by NCCLS agar dilution method; type: functional
[13] = system: Staphylococcus aureus; experiment: Antibacterial activity against Staphylococcus aureus clinical isolate 5 assessed as growth inhibition at pH 7 after 16 to 18 hr by NCCLS agar dilution method; type: functional
[14] = system: Staphylococcus aureus; experiment: Antibacterial activity against Staphylococcus aureus clinical isolate 16 assessed as growth inhibition at pH 9 after 16 to 18 hr by NCCLS agar dilution method; type: functional
[15] = system: Helicobacter pylori; experiment: Antibacterial activity against Helicobacter pylori 05-12 assessed as growth inhibition after 16 to 18 hr NCCLS agar dilution method; type: functional
[16] = system: Staphylococcus aureus; experiment: Antibacterial activity against Staphylococcus aureus clinical isolate 15 assessed as growth inhibition at pH 7 after 16 to 18 hr by NCCLS agar dilution method; type: functional
[17] = system: Helicobacter pylori; experiment: Antibacterial activity against Helicobacter pylori 06-5 assessed as growth inhibition after 16 to 18 hr NCCLS agar dilution method; type: functional
[18] = system: Staphylococcus aureus; experiment: Antibacterial activity against Staphylococcus aureus clinical isolate assessed as growth inhibition at pH 9 after 16 to 18 hr by NCCLS agar dilution method; type: functional
[19] = system: Staphylococcus aureus; experiment: Bactericidal activity against Staphylococcus aureus clinical isolate 8 after 24 hr; type: functional; conditions: isolate 8, 24 h
[20] = system: Staphylococcus aureus; experiment: Antibacterial activity against Staphylococcus aureus clinical isolate assessed as growth inhibition at pH 7 after 16 to 18 hr by NCCLS agar dilution method; type: functional
[21] = system: Staphylococcus aureus; experiment: Antibacterial activity against Staphylococcus aureus clinical isolate 4 assessed as growth inhibition at pH 7 after 16 to 18 hr by NCCLS agar dilution method; type: functional
[22] = system: Staphylococcus aureus; experiment: Antibacterial activity against Staphylococcus aureus clinical isolate 6 assessed as growth inhibition at pH 5 after 16 to 18 hr by NCCLS agar dilution method; type: functional
[23] = system: Staphylococcus aureus; experiment: Antibacterial activity against Staphylococcus aureus clinical isolate 4 assessed as growth inhibition after 16 to 18 hr by NCCLS agar dilution method; type: functional
[24] = system: Helicobacter pylori; experiment: Antibacterial activity against Helicobacter pylori 05-9 assessed as growth inhibition after 16 to 18 hr NCCLS agar dilution method; type: functional
[25] = system: Staphylococcus aureus; experiment: Antibacterial activity against Staphylococcus aureus clinical isolate 12 assessed as growth inhibition at pH 5 after 16 to 18 hr by NCCLS agar dilution method; type: functional
[26] = system: Staphylococcus aureus; experiment: Antibacterial activity against Staphylococcus aureus clinical isolate 5 assessed as growth inhibition at pH 5 after 16 to 18 hr by NCCLS agar dilution method; type: functional
[27] = system: Staphylococcus aureus; experiment: Bactericidal activity against methicillin-resistant Staphylococcus aureus isolate 1 after 24 hr; type: functional; conditions: isolate 1, 24 h
[28] = system: Staphylococcus aureus; experiment: Antibacterial activity against Staphylococcus aureus clinical isolate 20 assessed as growth inhibition at pH 9 after 16 to 18 hr by NCCLS agar dilution method; type: functional
[29] = system: Staphylococcus aureus; experiment: Antibacterial activity against Staphylococcus aureus clinical isolate 8 assessed as growth inhibition after 16 to 18 hr by NCCLS agar dilution method; type: functional
[30] = system: Staphylococcus aureus; experiment: Antibacterial activity against methicillin-resistant Staphylococcus aureus isolate 2 assessed as growth inhibition after 16 to 18 hr by NCCLS agar dilution method; type: functional
[31] = system: Staphylococcus aureus; experiment: Antibacterial activity against Staphylococcus aureus clinical isolate 21 assessed as growth inhibition at pH 5 after 16 to 18 hr by NCCLS agar dilution method; type: functional
[32] = system: Helicobacter pylori; experiment: Antibacterial activity against Helicobacter pylori assessed as growth inhibition after 16 to 18 hr NCCLS agar dilution method; type: functional
[33] = system: Helicobacter pylori; experiment: Antibacterial activity against Helicobacter pylori 06-3 assessed as growth inhibition after 16 to 18 hr NCCLS agar dilution method; type: functional
[34] = system: Staphylococcus aureus; experiment: Antibacterial activity against Staphylococcus aureus clinical isolate 22 assessed as growth inhibition at pH 9 after 16 to 18 hr by NCCLS agar dilution method; type: functional
[35] = system: Staphylococcus aureus; experiment: Antibacterial activity against Staphylococcus aureus ATCC 25923 assessed as growth inhibition after 16 to 18 hr by NCCLS agar dilution method; type: functional
[36] = system: Staphylococcus aureus; experiment: Antibacterial activity against Staphylococcus aureus clinical isolate 7 assessed as growth inhibition at pH 9 after 16 to 18 hr by NCCLS agar dilution method; type: functional
[37] = system: Staphylococcus aureus; experiment: Antibacterial activity against Staphylococcus aureus clinical isolate 18 assessed as growth inhibition at pH 7 after 16 to 18 hr by NCCLS agar dilution method; type: functional
[38] = system: Staphylococcus aureus; experiment: Antibacterial activity against Staphylococcus aureus clinical isolate 13 assessed as growth inhibition at pH 9 after 16 to 18 hr by NCCLS agar dilution method; type: functional
[39] = system: Helicobacter pylori; experiment: Antibacterial activity against Helicobacter pylori 05-3 assessed as growth inhibition after 16 to 18 hr NCCLS agar dilution method; type: functional
[40] = system: Helicobacter pylori; experiment: Antibacterial activity against Helicobacter pylori 05-4 assessed as growth inhibition after 16 to 18 hr NCCLS agar dilution method; type: functional, 05-Apr
[41] = system: Staphylococcus aureus; experiment: Bactericidal activity against Staphylococcus aureus clinical isolate after 24 hr; type: functional
[42] = system: Staphylococcus aureus; experiment: Antibacterial activity against Staphylococcus aureus clinical isolate 1 assessed as growth inhibition at pH 7 after 16 to 18 hr by NCCLS agar dilution method; type: functional

CO/N=C/CC(=O)c1ccc(OC)cc1
MIC [1]: 16 µg/mL (≈ 77.2 µM) | MIC [2]: 64 µg/mL (≈ 309 µM) | MIC [3]: 16 µg/mL (≈ 77.2 µM) | MIC [4]: 16 µg/mL (≈ 77.2 µM) | MIC [5]: 16 µg/mL (≈ 77.2 µM) | MIC [6]: 8 µg/mL (≈ 38.6 µM) | MIC [7]: 32 µg/mL (≈ 154 µM) | MIC [8]: 8 µg/mL (≈ 38.6 µM) | MIC [9]: 16 µg/mL (≈ 77.2 µM) | MIC [10]: 8 µg/mL (≈ 38.6 µM) | MIC [11]: 16 µg/mL (≈ 77.2 µM) | MIC [12]: 8 µg/mL (≈ 38.6 µM) | MIC [13]: 16 µg/mL (≈ 77.2 µM) | MIC [14]: 8 µg/mL (≈ 38.6 µM) | MIC [15]: > 128 µg/mL | MIC [16]: 8 µg/mL (≈ 38.6 µM) | MIC [17]: 32 µg/mL (≈ 154 µM) | MIC50 [18]: 8 µg/mL (≈ 38.6 µM) | MIC90 [18]: 16 µg/mL (≈ 77.2 µM) | MBC [19]: 32 µg/mL (≈ 154 µM) | MIC50 [20]: 16 µg/mL (≈ 77.2 µM) | MIC90 [20]: 32 µg/mL (≈ 154 µM) | MIC [21]: 16 µg/mL (≈ 77.2 µM) | MIC [22]: 64 µg/mL (≈ 309 µM) | MIC [23]: 16 µg/mL (≈ 77.2 µM) | MIC [24]: 64 µg/mL (≈ 309 µM) | MIC [25]: 16 µg/mL (≈ 77.2 µM) | MIC [26]: 16 µg/mL (≈ 77.2 µM) | MBC [27]: 128 µg/mL (≈ 618 µM) | MIC [28]: 8 µg/mL (≈ 38.6 µM) | MIC [29]: 16 µg/mL (≈ 77.2 µM) | MIC [30]: 8 µg/mL (≈ 38.6 µM) | MIC [31]: 32 µg/mL (≈ 154 µM) | MIC50 [32]: 32 µg/mL (≈ 154 µM) | MIC90 [32]: 32 µg/mL (≈ 154 µM) | MIC [33]: 32 µg/mL (≈ 154 µM) | MIC [34]: 8 µg/mL (≈ 38.6 µM) | MIC [35]: 2 µg/mL (≈ 9.65 µM) | MIC [36]: 8 µg/mL (≈ 38.6 µM) | MIC [37]: 16 µg/mL (≈ 77.2 µM) | MIC [38]: 8 µg/mL (≈ 38.6 µM) | MIC [39]: 16 µg/mL (≈ 77.2 µM) | MIC [40]: 16 µg/mL (≈ 77.2 µM) | MBC50 (60.1); MBC90 (60.2) ([41]; read-out: MIC50): 64 µg/mL (≈ 309 µM) | MBC50 (60.1); MBC90 (60.2) ([41]; read-out: MIC90): 128 µg/mL (≈ 618 µM) | MIC [42]: 32 µg/mL (≈ 154 µM)
